Measured values as given in the CheMixHub ionic liquid set.

Assay: xn = mol fraction of the nth substance listed

CCCC[n+]1ccn(C)c1.COS(=O)(=O)[O-] + O
viscosity [mPa·s], 101 kPa
Settings | 283.15 K | 293.15 K | 303.15 K | 313.15 K | 323.15 K | 333.15 K | 343.15 K
x2 = 0.0004 | 527 | 273.8 | 153.5 | 93.1 | 60.24 | 41.07 | 29.3
x2 = 0.0999 | 432 | 229.3 | 132.8 | 82.6 | 54.53 | 37.8 | 27.72
x2 = 0.194 | 356.2 | 193.6 | 114.5 | 72.55 | 48.65 | 34.25 | 25.14
x2 = 0.3979 | 182.1 | 104.3 | 64.51 | 42.47 | 29.48 | 21.44 | 16.88
x2 = 0.6025 | 63.13 | 38.93 | 25.65 | 17.84 | 12.97 | 9.806 | 8.289
x2 = 0.8005 | 19.72 | 13.01 | 9.056 | 6.609 | 5.006 | 3.929 | 3.175
x2 = 0.8993 | 8.179 | 5.646 | 4.113 | 3.137 | 2.483 | 2.029 | 1.707

CCCCCC[n+]1ccn(C)c1.O=S(=O)([N-]S(=O)(=O)C(F)(F)F)C(F)(F)F + ClC(Cl)Cl
electrical conductivity [S/m], 101 kPa
Settings | x1 = 0.196 | x1 = 0.335 | x1 = 0.956 | x1 = 0.97 | x2 = 0.006
288.5 K | 0.462 | – | – | 0.146 | –
318.5 K | – | 0.845 | 0.469 | – | 0.459

CCCCCC[n+]1ccn(C)c1.[Br-] + OC1OC[C@@H](O)[C@H](O)[C@H]1O + O
298.15 K, 101 kPa
Settings | viscosity [mPa·s]
x2 = 0, x1 = 0.001844 | 0.948
x2 = 0, x1 = 0.003654 | 1.005
x2 = 0, x1 = 0.005425 | 1.053
x2 = 0, x1 = 0.007153 | 1.101

NCCO + CCCC[n+]1ccn(C)c1.F[P-](F)(F)(F)(F)F
101 kPa, x1 = 1
Settings | electrical conductivity [S/m] | viscosity [mPa·s]
288.15 K | 0.00163 | 31
293.15 K | 0.00189 | 23.7
298.15 K | 0.00227 | –
303.15 K | 0.00272 | –
308.15 K | 0.00321 | –
313.15 K | 0.00357 | –
318.15 K | 0.00622 | 8.1
323.15 K | 0.00689 | –

CCC[P+](c1ccccc1)(c1ccccc1)c1ccccc1.[Br-] + OCCO
100 kPa, x2 = 0.9756
Settings | viscosity [mPa·s]
303.15 K | 20.5
313.15 K | 17.1
323.15 K | 14
333.15 K | 11.6
343.15 K | 10
353.15 K | 9.1

CCCCCCCCOS(=O)(=O)[O-].CC[n+]1ccn(C)c1 + O + O=S(=O)([O-])[O-].[Li+].[Li+]
101 kPa, frequency 0.0005 MHz, x2 = 0.8284, x3 = 0.003275
Settings | electrical conductivity [S/m]
283.15 K | 0.479
285.15 K | 0.518
287.15 K | 0.561
288.15 K | 0.582
289.15 K | 0.605
291.15 K | 0.649
293.15 K | 0.698
298.15 K | 0.83
303.15 K | 0.975
313.15 K | 1.31
323.15 K | 1.68
333.15 K | 2.1
343.15 K | 2.62
348.15 K | 2.87
358.15 K | 3.41
363.15 K | 3.68

101 kPa, x2 = 0.8284, x3 = 0.003275
Settings | viscosity [mPa·s]
293.15 K | 101
296.15 K | 85.2
298.15 K | 76.4
303.15 K | 58.9
308.15 K | 46.1
318.15 K | 29.59
328.15 K | 19.97
338.15 K | 14.04
